Results reported in ChEMBL document CHEMBL3351629, “Modulators of the nuclear receptor retinoic acid receptor-related orphan receptor-γ (RORγ or RORc)” (J Med Chem, 2014).
pEC50, pIC50: −log10 of the molar value. One block for each compound: values may come before it.

What was measured:
[1] = biological target: T1, Nuclear receptor ROR-gamma (Homo sapiens, UniProt P51449); test: Agonist activity at RoRc-LBD (unknown origin) expressed in Drosophilla S2 cells assessed as transcriptional activity by GAL4 reporter assay; assay type: functional, cell-based
T1 sequence (P51449 whole entry): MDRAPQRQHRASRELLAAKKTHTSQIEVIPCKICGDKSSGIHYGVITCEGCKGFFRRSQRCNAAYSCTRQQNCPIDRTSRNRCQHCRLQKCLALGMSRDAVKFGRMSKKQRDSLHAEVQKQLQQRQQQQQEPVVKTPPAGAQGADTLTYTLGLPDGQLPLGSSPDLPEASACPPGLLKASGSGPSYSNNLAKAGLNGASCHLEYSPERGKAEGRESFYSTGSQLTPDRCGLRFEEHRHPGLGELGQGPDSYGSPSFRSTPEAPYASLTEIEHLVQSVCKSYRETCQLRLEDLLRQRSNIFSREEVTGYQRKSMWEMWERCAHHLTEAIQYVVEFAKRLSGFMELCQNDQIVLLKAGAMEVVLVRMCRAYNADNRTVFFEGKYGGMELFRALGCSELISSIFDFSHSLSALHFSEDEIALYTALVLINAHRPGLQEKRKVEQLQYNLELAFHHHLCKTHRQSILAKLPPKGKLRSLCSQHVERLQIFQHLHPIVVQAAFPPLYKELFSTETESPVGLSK

[2] = system: Mus musculus; test: Decrease in serum IL-17a level in mouse at 100 mg/kg in presence of anti-CD3 antibody; assay type: functional
[3] = system: Mus musculus; test: Decrease in serum IL-17a level in mouse at 30 mg/kg in presence of anti-CD3 antibody; assay type: functional
[4] = system: Mus musculus; test: Decrease in serum IL-17a level in mouse at 300 mg/kg in presence of anti-CD3 antibody; assay type: functional
[5] = biological target: T2, Nuclear receptor ROR-gamma (Mus musculus) (UniProt P51450); test: Activity at RoRc in mouse CD4+ T cells assessed as inhibition of IL-17 production at 10 uM; assay type: cell-based; conditions: T-cell
T2 sequence (whole entry): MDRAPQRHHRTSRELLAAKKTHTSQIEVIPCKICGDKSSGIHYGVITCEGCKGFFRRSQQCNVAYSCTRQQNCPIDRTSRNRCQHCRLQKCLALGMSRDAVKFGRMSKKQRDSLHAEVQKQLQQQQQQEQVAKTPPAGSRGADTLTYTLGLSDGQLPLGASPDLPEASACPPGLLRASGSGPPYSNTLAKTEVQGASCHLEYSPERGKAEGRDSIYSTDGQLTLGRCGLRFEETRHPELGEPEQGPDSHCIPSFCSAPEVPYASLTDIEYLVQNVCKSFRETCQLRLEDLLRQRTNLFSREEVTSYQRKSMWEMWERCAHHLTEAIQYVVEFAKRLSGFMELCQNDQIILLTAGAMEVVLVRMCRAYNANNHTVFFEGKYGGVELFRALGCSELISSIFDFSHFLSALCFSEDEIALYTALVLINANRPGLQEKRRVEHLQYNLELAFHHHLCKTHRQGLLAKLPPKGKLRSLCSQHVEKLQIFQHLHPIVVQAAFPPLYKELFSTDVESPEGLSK

[6] = biological target: T1, Nuclear receptor ROR-gamma; test: Inhibition of RORc (unknown origin) assessed as inhibition of fluorescein-D22 recruitment by TR-FRET assay; assay type: functional
[7] = biological target: T1, Nuclear receptor ROR-gamma; test: Inverse agonist activity at human RoRc-LBD fusion protein with GST expressed in […] cells assessed as SRC1 coactivator peptide recruitment; assay type: functional, cell-based
[8] = biological target: T3, Nuclear receptor ROR-gamma (Homo sapiens) (UniProt P51449); test: (§1) Inverse agonist activity at human RoRc in human skin model assessed as suppression of IL-17A level relative to control; assay type: functional; conditions: concentration not given here
T3 sequence (whole entry): T1 sequence (P51449 whole entry)

[9] = biological target: T3, Nuclear receptor ROR-gamma (Homo sapiens); test: Inverse agonist activity at human RoRc in human skin model assessed as suppression of IL-22 level relative to control; conditions: concentration not given here
[10] = biological target: T1, Nuclear receptor ROR-gamma; test: Agonist activity at human RoRc-LBD expressed in CHO cells assessed as transcriptional activity by GAL4 reporter assay; assay type: functional, cell-based
[11] = biological target: T1, Nuclear receptor ROR-gamma; test: Agonist activity at human RoRc-LBD in human PBMC cells assessed as inhibition of IL-17A production by luciferase assay; assay type: functional, cell-based
[12] = biological target: T3, Nuclear receptor ROR-gamma (Homo sapiens); test: Agonist activity at human RoRc-LBD expressed in Jurkat cells assessed as production of IL-17 at 3 uM by luciferase assay in absence of anti-CD3 relative to basal activity; assay type: cell-based
[13] = biological target: T1, Nuclear receptor ROR-gamma; test: Inverse agonist activity at human RoRc in human skin model assessed as suppression of IL-17F level relative to control; assay type: functional
[14] = biological target: T1, Nuclear receptor ROR-gamma; test: as §1; assay type: functional
[15] = biological target: T1, Nuclear receptor ROR-gamma; test: Inverse agonist activity at human RoRc-LBD expressed in cells assessed as TRAP-220 coactivator peptide recruitment; assay type: functional, cell-based
[16] = biological target: T4, Nuclear receptor ROR-gamma (Mus musculus, UniProt P51450); test: Activity at RoRc in mouse CD4+ T cells assessed as inhibition of IL-17 production; assay type: cell-based, T-cell
T4 sequence (P51450 whole entry): T2 sequence (whole entry)

[17] = biological target: T1, Nuclear receptor ROR-gamma; test: Binding affinity to RORgamma (unknown origin)
[18] = biological target: T3, Nuclear receptor ROR-gamma (Homo sapiens); test: Activity at human RoRc in human Jurkat cells assessed as inhibition of IL-17 promoter at 3 uM relative to control; assay type: cell-based
[19] = biological target: T1, Nuclear receptor ROR-gamma; test: Inverse agonist activity at human RoRc-LBD expressed in cells assessed as SRC1 to 2 coactivator peptide recruitment; assay type: functional, cell-based

SMILES: COC(=O)[C@H]1CC[C@]2(O)[C@@H]3CC[C@@H]4C[C@@H](O[C@H]5C[C@H](O)[C@H](O[C@H]6C[C@H](O)[C@H](O[C@H]7C[C@H](O)[C@H](O)[C@@H](C)O7)[C@@H](C)O6)[C@@H](C)O5)CC[C@]4(C)[C@H]3C[C@@H](O)[C@]12C
pEC50 [1]: 6.00

SMILES: CCn1c2ccccc2c2cc(NC(=O)CC(C)CC(=O)Nc3ccc(C#N)c(Cl)c3)ccc21 (stereo unspecified)
inhibition in vivo at 100 mg/kg [2]: 25% | inhibition in vivo at 30 mg/kg [3]: 10% | inhibition in vivo at 300 mg/kg [4]: 53% | inhibition [5]: 96%

pEC50 [6]: > 7.30
SMILES: CCS(=O)(=O)c1ccc(CC(=O)Nc2ccc(-n3ccc(C)n3)c(Oc3cccc(OC(F)(F)F)c3)c2)cc1

pEC50 [7]: 7.49 | inhibition [8]: 83% | inhibition [9]: 60%
SMILES: CCc1ccc(N(CC(C)C)S(=O)(=O)c2ccc(C(O)CN3CCOCC3)c(CO)c2)cc1 (stereo unspecified)

pEC50 [10]: 7.28
SMILES: Cc1ccc(NC(=O)C[C@H](CCC(=O)O)c2nnn([C@H]3C[C@@H](CC(C)(C)C)C3)c2C(F)(F)F)c(C)c1

pEC50 [10]: 6.49
SMILES: Cc1ccc(NC(=O)C[C@H](CC(=O)O)c2noc([C@H]3C[C@@H](CC(C)C)C3)c2C2CC2)c(Cl)c1

pEC50 [10]: 5.64
SMILES: Cc1ccc(NC(=O)C[C@H](CCC(=O)O)c2noc([C@H]3C[C@@H](CC(C)(C)C)C3)c2C2CC2)c(Cl)c1

pEC50 [7]: > 7.49 | pEC50 [11]: > 6.00
SMILES: CC(C)c1ccc(N(C(C)C(C)C)S(=O)(=O)c2ccc(OCC3CCOCC3)cc2)nc1 (stereo unspecified)

SMILES: C[C@H]1O[C@@H](O[C@H]2[C@@H](O)C[C@H](O[C@H]3[C@@H](O)C[C@H](O[C@H]4CC[C@@]5(C)[C@H](CC[C@@H]6[C@@H]5C[C@@H](O)[C@]5(C)[C@@H](C7=CC(=O)O/C7=C\c7ccccc7O)CC[C@]65O)C4)O[C@@H]3C)O[C@@H]2C)C[C@H](O)[C@@H]1O
pEC50 [1]: 6.00

Activity [12]: 220%
SMILES: Cc1cccc(C(=O)Nc2cc(-c3ccccc3)no2)c1

pEC50 [13]: > 5.00 | pEC50 [14]: > 5.00
SMILES: OC(c1ccc(CN2CCCc3cc(-c4cn[nH]c4)ccc32)cc1)(C(F)(F)F)C(F)(F)F

pEC50 [15]: > 7.00 | pEC50 [16]: > 7.00
SMILES: [2H]C([2H])([2H])N(C(=O)c1c(F)cccc1Cl)c1ccc(-c2cc(C(=O)NCC(C)(C)O)ccc2Cl)cc1N(C([2H])([2H])C([2H])([2H])[2H])C([2H])([2H])C([2H])([2H])[2H]

pEC50 [6]: > 7.30
SMILES: CCS(=O)(=O)c1ccc(CC(=O)Nc2ccc(-c3ccccc3)c(Oc3ccccc3)c2)cc1

SMILES: C[C@H]1O[C@@H](O[C@H]2[C@@H](O)C[C@H](O[C@H]3[C@@H](O)C[C@H](O[C@H]4CC[C@@]5(C)[C@H](CC[C@@H]6[C@@H]5C[C@@H](O)[C@]5(C)[C@@H]([C@@H](CO)CCO)CC[C@]65O)C4)O[C@@H]3C)O[C@@H]2C)C[C@H](O)[C@@H]1O
pIC50 [17]: 4.92

inhibition [18]: 96% | inhibition [5]: 91%
SMILES: COc1ccc(-c2c(-c3nc(CC(=O)NCC4CCOCC4)cs3)cnn2C(C)(C)C)cc1F

pEC50 [13]: > 5.00 | pEC50 [14]: > 5.00
SMILES: CC(=O)Nc1ccc2c(c1)CCCN2Cc1ccc(C(O)(C(F)(F)F)C(F)(F)F)cc1

Activity [12]: 220%
SMILES: CCC(=O)Nc1ccc2nn(-c3ccc(CC)cc3)nc2c1

pEC50 [11]: > 6.00 | pEC50 [19]: > 7.80
SMILES: Cc1noc(C)c1COc1ccc(S(=O)(=O)N(CC(C)C)c2ccc(Cl)cc2)cc1

pEC50 [13]: > 5.00 | pEC50 [14]: > 5.00
SMILES: NC(=O)c1ccc2c(c1)CCN2Cc1ccc(C(O)(C(F)(F)F)C(F)(F)F)cc1

pEC50 [11]: 6.50 | pIC50 [19]: > 7.80
SMILES: Cc1ccc(N(CC(C)C)S(=O)(=O)c2ccc(OCc3ccncc3)cc2)c(C)c1

pEC50 [15]: > 7.00 | pEC50 [16]: > 7.00
SMILES: CN(C(=O)c1c(F)cccc1Cl)c1ccc(-c2cc(C(N)=O)ccc2Cl)cc1O[C@@H]1C[C@@H]2C[C@@H]2C1

pEC50 [10]: 7.15
SMILES: Cc1ccc(Cl)c(NC(=O)C[C@H](CC(=O)O)c2noc([C@H]3C[C@@H](CC(C)C)C3)c2C2CC2)c1
